Reference: patent publication US8497266B2, “3-(3-pyrimidin-2-ylbenzyl)-1,2,4-triazolo[4,3-b]pyridazine derivatives as MET kinase inhibitors” (Merck Patent GmbH, priority 2008, dated 2013)

What was measured:
Met kinase [1] = target: T1, Met kinase (Homo sapiens, UniProt P08581); experiment: Met kinase inhibition, flashplate method (enzyme); format: biochemical; design: 6His (N); purchased Upstate 14-526; host or cells: Sf21 insect cells (S. frugiperda), baculovirus
Source text: According to the manufacturer's data (Met, active, Upstate, catalogue No. 14-526), Met kinase is expressed for the purposes of protein production in insect cells (Sf21; S. frugiperda) and subsequent affinity-chromatographic purification as “N-terminal 6His-tagged” recombinant human protein in a baculovirus expression vector.
The test plates used are 96-well Flashplate® microtitre plates from Perkin Elmer (Cat. No. SMP200). The components of the kinase reaction described below are pipetted into the assay plate. The Met kinase and the substrate poly Ala-Glu-Lys-Tyr, (pAGLT, 6:2:5:1), are incubated for 3 hrs at room temperature with radioactively labelled ^33P-ATP in the presence and absence of test substances in a total volume of 100 μl. The reaction is terminated using 150 μl of a 60 mM EDTA solution. After incubation for a further 30 min at room temperature, the supernatants are filtered off with suction, and the wells are washed three times with 200 μl of 0.9% NaCl solution each time. The measurement of the bound radioactivity is carried out by means of a scintillation measuring instrument (Topcount NXT, Perkin-Elmer).
The full value used is the inhibitor-free kinase reaction. This should be approximately in the range 6000-9000 cpm. The pharmacological zero value used is staurosporin in a final concentration of 0.1 mM. The inhibitory values (IC50) are determined using the RS1_MTS program.
Kinase reaction conditions per well: • 30 μl of assay buffer • 10 μl of substance to be tested in assay buffer with 10% of DMSO • 10 μl of ATP (final concentration 1 μM cold, 0.35 μCi of ^33P-ATP) • 50 μl of Met kinase/substrate mixture in assay buffer; • (10 ng of enzyme/well, 50 ng of pAGLT/well) • Solutions used: • Assay buffer: • 50 mM HEPES • 3 mM magnesium chloride • 3 μM sodium orthovanadate • 3 mM manganese(II) chloride • 1 mM dithiothreitol (DTT) • pH=7.5 (to be set using sodium hydroxide) • Stop solution: • 60 mM Titriplex III (EDTA) • ^33P-ATP: Perkin-Elmer; • Met kinase: Upstate, Cat. No. 14-526, Stock 1 μg/10 μl; spec. activity 954 U/mg; • Poly-Ala-Glu-Lys-Tyr, 6:2:5:1: Sigma Cat. No. P1152 In-Vivo Tests
Target sequence in this assay (P08581 956-1390 limits assumed): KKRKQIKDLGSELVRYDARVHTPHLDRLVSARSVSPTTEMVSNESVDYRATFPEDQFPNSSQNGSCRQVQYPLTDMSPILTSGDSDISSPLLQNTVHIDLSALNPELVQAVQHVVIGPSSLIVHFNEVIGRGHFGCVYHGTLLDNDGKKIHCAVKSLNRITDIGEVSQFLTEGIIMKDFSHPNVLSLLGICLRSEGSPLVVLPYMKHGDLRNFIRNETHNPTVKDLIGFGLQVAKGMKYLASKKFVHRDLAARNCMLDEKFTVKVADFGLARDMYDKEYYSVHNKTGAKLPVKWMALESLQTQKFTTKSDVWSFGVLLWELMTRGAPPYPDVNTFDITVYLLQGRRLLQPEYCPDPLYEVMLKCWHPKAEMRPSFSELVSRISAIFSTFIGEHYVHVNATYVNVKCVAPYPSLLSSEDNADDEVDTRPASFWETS

Met kinase [2] = target: T1, Met kinase; experiment: Met kinase inhibition (cell); format: cell-based
Target sequence in this assay (P08581 25-1390): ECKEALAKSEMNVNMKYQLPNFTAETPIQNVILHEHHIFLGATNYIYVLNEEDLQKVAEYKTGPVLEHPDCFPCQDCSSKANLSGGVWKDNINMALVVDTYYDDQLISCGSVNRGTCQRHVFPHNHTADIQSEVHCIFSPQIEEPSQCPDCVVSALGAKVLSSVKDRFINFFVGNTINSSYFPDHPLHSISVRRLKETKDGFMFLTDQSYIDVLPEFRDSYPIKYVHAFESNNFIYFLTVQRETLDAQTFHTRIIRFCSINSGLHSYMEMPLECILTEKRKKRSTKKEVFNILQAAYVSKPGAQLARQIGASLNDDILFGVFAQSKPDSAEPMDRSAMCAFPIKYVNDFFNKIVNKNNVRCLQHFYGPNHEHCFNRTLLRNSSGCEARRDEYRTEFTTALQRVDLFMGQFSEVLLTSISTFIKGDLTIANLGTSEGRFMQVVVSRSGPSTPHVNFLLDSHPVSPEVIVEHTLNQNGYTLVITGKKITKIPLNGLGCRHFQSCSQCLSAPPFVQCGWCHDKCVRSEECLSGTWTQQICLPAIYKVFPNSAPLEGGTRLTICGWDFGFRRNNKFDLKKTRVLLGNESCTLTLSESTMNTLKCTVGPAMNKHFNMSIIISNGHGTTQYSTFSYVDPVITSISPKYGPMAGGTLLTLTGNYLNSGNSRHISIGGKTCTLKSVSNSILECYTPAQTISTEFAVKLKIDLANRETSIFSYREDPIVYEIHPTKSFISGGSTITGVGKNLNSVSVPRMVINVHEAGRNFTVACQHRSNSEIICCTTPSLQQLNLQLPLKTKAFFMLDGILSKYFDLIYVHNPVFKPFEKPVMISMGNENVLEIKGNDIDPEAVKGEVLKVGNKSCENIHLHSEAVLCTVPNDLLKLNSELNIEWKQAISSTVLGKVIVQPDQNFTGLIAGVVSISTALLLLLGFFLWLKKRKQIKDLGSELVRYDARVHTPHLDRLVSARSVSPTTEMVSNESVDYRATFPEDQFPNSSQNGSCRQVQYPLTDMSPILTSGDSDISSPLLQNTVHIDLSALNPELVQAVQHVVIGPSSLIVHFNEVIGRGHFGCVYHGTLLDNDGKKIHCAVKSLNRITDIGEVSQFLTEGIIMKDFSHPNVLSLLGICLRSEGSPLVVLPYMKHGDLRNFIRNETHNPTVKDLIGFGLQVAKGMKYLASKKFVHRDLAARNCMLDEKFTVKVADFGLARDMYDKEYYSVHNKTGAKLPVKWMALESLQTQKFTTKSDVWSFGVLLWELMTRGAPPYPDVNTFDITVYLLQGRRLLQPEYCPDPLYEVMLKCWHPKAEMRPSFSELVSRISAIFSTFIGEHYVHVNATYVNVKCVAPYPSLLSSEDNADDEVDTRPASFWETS

| Structure (SMILES) | IC50 (Met kinase [1]) | IC50 (Met kinase [2]) |
| --- | --- | --- |
| OCCn1cc(-c2ccc3nnc(Cc4cccc(-c5ncc(Br)cn5)c4)n3n2)cn1 [Compound A43, 2-(4-{3-[3-(5-bromopyrimidin-2-yl)benzyl]-1,2,4-triazolo-[4,3-b]pyridazin-6-yl}pyrazol-1-yl)ethanol] | 1 to 100 nM | 1 to 100 nM |
| Cc1ccc2nnc(Cc3cccc(-c4ncc(Br)cn4)c3)n2n1 [Compound A6] | 1 to 100 nM | 100 to 10000 nM |
| Cn1cc(-c2ccc3nnc(C(F)(F)c4cccc(-c5ncccn5)c4)n3n2)cn1 [Compound A26, 3-[difluoro-(3-pyrimidin-2-ylphenyl)methyl]-6-(1-methyl-1H-pyrazol-4-yl)-1,2,4-triazolo[4,3-b]pyridazine] | 1 to 100 nM | 1 to 100 nM |
| N#Cc1cccc(-c2ccc3nnc(C(F)(F)c4cccc(-c5ncc(Br)cn5)c4)n3n2)c1 [Compound A3a, 3-(3-{[3-(5-bromopyrimidin-2-yl)phenyl]difluoromethyl}-1,2,4-triazolo[4,3-b]-pyridazin-6-yl)benzonitrile] | 1 to 100 nM | 1 to 100 nM |
| N#Cc1cccc(-c2ccc3nnc(Cc4cccc(-c5ncc(-c6cnn(CCN7CCCC7)c6)cn5)c4)n3n2)c1 [Compound A20] | 1 to 100 nM | 1 to 100 nM |
| Cn1cc(-c2ccc3nnc(C(F)(F)c4cccc(-c5ncc(Br)cn5)c4)n3n2)cn1 [Compound A3, 3-{[3-(5-bromopyrimidin-2-yl)phenyl]difluoromethyl}-6-(1-methyl-1H-pyrazol-4-yl)-1,2,4-triazolo[4,3-b]pyridazine] | 1 to 100 nM | 1 to 100 nM |
| Cc1ccc2nnc(Cc3cccc(-c4ncc(-c5cnn(CCN6CCCC6)c5)cn4)c3)n2n1 [Compound A9] | 1 to 100 nM | 1 to 100 nM |
| Cc1ccc2nnc(C(F)(F)c3cccc(-c4ncc(N5CCN(C)CC5)cn4)c3)n2n1 [Compound A25] | 1 to 100 nM | 1 to 100 nM |
| N#Cc1cccc(-c2ccc3nnc(C(F)(F)c4cccc(-c5ncc(N6CCNCC6)cn5)c4)n3n2)c1 [Compound A24] | 1 to 100 nM | 1 to 100 nM |
| Cc1ccc2nnc(C(F)(F)c3cccc(-c4ncc(Br)cn4)c3)n2n1 [Compound A27, 3-{[3-(5-bromopyrimidin-2-yl)phenyl]difluoromethyl}-6-methyl-1,2,4-triazolo[4,3-b]pyridazine] | 1 to 100 nM | 1 to 100 nM |
| Cn1cc(-c2ccc3nnc(C(F)(F)c4cccc(-c5ncc(OCCN6CCOCC6)cn5)c4)n3n2)cn1 [Compound A12, 3-(difluoro-{3-[5-(2-morpholin-4-ylethoxy)pyrimidin-2-yl]-phenyl}methyl)-6-(1-methyl-1H-pyrazol-4-yl)-1,2,4-triazolo[4,3-b]pyridazine] | 1 to 100 nM | 1 to 100 nM |
| Cc1ccc2nnc(C(F)(F)c3cccc(-c4ncc(-c5cnn(CCN6CCCC6)c5)cn4)c3)n2n1 [Compound A21] | 1 to 100 nM | 1 to 100 nM |
| CN1CCN(c2cnc(-c3cccc(Cc4nnc5ccc(-c6cnn(C)c6)nn45)c3)nc2)CC1 [Compound A11, 3-{3-[5-(4-methylpiperazin-1-yl)pyrimidin-2-yl]benzyl}-6-(1-methyl-1H-pyrazol-4-yl)-1,2,4-triazolo[4,3-b]pyridazine] | 1 to 100 nM | 1 to 100 nM |
| Cc1ccc2nnc(Cc3cccc(-c4ncc(N5CCN(C)CC5)cn4)c3)n2n1 [Compound A17] | 1 to 100 nM | 1 to 100 nM |

The remaining lines, values ahead:

| IC50 (Met kinase [1]) | IC50 (Met kinase [2]) | Structure (SMILES) |
| --- | --- | --- |
| 1 to 100 nM | 1 to 100 nM | Cc1ccc2nnc(C(F)(F)c3cccc(-c4ncc(OCC5CCN(C)CC5)cn4)c3)n2n1 [Compound A41, 3-(difluoro-{3-[5-(1-methylpiperidin-4-ylmethoxy)pyrimidin-2-yl]phenyl}methyl)-6-methyl-1,2,4-triazolo[4,3-b]pyridazine] |
| 1 to 100 nM | 100 to 10000 nM | Cn1cc(-c2ccc3nnc(C4(c5cccc(-c6ncc(Br)cn6)c5)CC4)n3n2)cn1 [Compound A4] |
| 1 to 100 nM | 1 to 100 nM | N#Cc1cccc(-c2ccc3nnc(C(F)(F)c4cccc(-c5ncc(-c6cnn(CCN7CCCC7)c6)cn5)c4)n3n2)c1 [Compound A19] |
| 1 to 100 nM | 1 to 100 nM | CN1CCN(c2cnc(-c3cccc(C(F)(F)c4nnc5ccc(-c6cccc(C#N)c6)nn45)c3)nc2)CC1 [Compound A23] |
| 1 to 100 nM | 1 to 100 nM | Cn1cc(-c2ccc3nnc(C(F)(F)c4cccc(-c5ncc(-c6cnn(CCN7CCCC7)c6)cn5)c4)n3n2)cn1 [Compound A7] |
| 1 to 100 nM | 1 to 100 nM | Cn1cc(-c2ccc3nnc(C4(c5cccc(-c6ncc(-c7cnn(CCN8CCCC8)c7)cn6)c5)CC4)n3n2)cn1 [Compound A8] |
| 1 to 100 nM | 1 to 100 nM | CC(c1cccc(-c2ncc(-c3cnn(CCN4CCCC4)c3)cn2)c1)c1nnc2ccc(-c3cnn(C)c3)nn12 (stereo not drawn) [Compound A22] |
| 1 to 100 nM | 1 to 100 nM | CN1CCN(c2cnc(-c3cccc(C(F)(F)c4nnc5ccc(-c6cnn(C)c6)nn45)c3)nc2)CC1 [Compound A16] |
| 1 to 100 nM | 1 to 100 nM | N#Cc1cccc(-c2ccc3nnc(Cc4cccc(-c5ncc(Br)cn5)c4)n3n2)c1 [Compound A5, 3-{3-[3-(5-bromopyrimidin-2-yl)benzyl]-1,2,4-triazolo[4,3-b]-pyridazin-6-yl}benzonitrile] |
| 1 to 100 nM | 1 to 100 nM | Cn1cc(-c2ccc3nnc(Cc4cccc(-c5ncc(Br)cn5)c4)n3n2)cn1 [Compound A1, 3-[3-(5-bromopyrimidin-2-yl)benzyl]-6-(1-methyl-1H-pyrazol-4-yl)-1,2,4-triazolo[4,3-b]pyridazine] |
